Assay results published in ChEMBL document CHEMBL1139325, “Discovery of targeting ligands for breast cancer cells using the one-bead one-compound combinatorial method” (J Med Chem, 2009).
Calls of active or inactive are those of the source.

How the values were obtained:
Format in all cases: cell-based
[1] = molecular target: Integrin alpha-1 (Homo sapiens) (UniProt P56199); test: Binding affinity to integrin alpha1 expressed in human K562 cells at 1 uM for 30 mins by flow cytometry
K562 [2] = test: Decrease in binding affinity to integrin alpha3 Y186A mutant expressed in human K562 cells by flow cytometry
K562 [3] = test: Decrease in binding affinity to integrin alpha3 M164A mutant expressed in human K562 cells by flow cytometry
[4] = molecular target: Integrin alpha-V/beta-3 (Homo sapiens) (UniProt P05106+P06756); test: Binding affinity to integrin alphaVbeta3 expressed in human K562 cells at 1 uM for 30 mins by flow cytometry
[5] = molecular target: Integrin alpha-4 (Homo sapiens) (UniProt P13612); test: Binding affinity to integrin alpha4 expressed in human K562 cells at 1 uM for 30 mins by flow cytometry
Chain of Integrin alpha-4 (Homo sapiens) (P13612 whole entry): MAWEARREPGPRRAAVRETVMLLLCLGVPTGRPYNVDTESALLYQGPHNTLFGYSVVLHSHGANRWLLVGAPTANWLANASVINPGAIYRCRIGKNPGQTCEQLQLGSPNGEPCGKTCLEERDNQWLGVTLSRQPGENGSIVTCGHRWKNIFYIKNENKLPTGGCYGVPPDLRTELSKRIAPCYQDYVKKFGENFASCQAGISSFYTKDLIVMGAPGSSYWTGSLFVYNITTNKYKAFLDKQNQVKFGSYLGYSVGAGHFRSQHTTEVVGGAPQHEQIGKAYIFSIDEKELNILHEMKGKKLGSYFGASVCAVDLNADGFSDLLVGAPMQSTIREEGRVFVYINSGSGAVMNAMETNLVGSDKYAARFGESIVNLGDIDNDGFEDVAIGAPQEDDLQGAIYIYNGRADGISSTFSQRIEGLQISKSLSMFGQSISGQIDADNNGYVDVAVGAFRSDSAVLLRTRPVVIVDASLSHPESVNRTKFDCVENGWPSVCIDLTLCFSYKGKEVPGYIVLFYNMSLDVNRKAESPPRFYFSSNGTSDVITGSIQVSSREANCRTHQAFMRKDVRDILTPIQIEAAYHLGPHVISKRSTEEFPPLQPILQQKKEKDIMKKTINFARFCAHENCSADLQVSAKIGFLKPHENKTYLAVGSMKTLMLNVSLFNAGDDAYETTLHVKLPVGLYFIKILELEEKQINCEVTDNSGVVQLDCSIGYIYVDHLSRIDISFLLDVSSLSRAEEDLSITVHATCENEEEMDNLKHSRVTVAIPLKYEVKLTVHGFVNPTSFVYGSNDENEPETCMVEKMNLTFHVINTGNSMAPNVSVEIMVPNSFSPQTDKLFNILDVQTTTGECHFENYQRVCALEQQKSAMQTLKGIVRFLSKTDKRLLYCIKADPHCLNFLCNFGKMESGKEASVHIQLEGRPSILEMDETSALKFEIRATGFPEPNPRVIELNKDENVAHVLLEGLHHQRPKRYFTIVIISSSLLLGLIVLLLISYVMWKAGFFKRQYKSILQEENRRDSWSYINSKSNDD

K562 [6] = test: Decrease in binding affinity to integrin alpha3 T162A mutant expressed in human K562 cells by flow cytometry
K562 [7] = test: Decrease in binding affinity to integrin alpha3 T162F mutant expressed in human K562 cells by flow cytometry
K562 [8] = test: Decrease in binding affinity to integrin alpha3 G163A mutant expressed in human K562 cells by flow cytometry
K562 [9] = test: Decrease in binding affinity to integrin alpha3 D15A mutant expressed in human K562 cells by flow cytometry
[10] = molecular target: T1, Integrin alpha-9 (Homo sapiens) (UniProt Q13797); test: Binding affinity to integrin alpha9 expressed in human K562 cells at 1 uM for 30 mins by flow cytometry
T1 sequence (whole entry): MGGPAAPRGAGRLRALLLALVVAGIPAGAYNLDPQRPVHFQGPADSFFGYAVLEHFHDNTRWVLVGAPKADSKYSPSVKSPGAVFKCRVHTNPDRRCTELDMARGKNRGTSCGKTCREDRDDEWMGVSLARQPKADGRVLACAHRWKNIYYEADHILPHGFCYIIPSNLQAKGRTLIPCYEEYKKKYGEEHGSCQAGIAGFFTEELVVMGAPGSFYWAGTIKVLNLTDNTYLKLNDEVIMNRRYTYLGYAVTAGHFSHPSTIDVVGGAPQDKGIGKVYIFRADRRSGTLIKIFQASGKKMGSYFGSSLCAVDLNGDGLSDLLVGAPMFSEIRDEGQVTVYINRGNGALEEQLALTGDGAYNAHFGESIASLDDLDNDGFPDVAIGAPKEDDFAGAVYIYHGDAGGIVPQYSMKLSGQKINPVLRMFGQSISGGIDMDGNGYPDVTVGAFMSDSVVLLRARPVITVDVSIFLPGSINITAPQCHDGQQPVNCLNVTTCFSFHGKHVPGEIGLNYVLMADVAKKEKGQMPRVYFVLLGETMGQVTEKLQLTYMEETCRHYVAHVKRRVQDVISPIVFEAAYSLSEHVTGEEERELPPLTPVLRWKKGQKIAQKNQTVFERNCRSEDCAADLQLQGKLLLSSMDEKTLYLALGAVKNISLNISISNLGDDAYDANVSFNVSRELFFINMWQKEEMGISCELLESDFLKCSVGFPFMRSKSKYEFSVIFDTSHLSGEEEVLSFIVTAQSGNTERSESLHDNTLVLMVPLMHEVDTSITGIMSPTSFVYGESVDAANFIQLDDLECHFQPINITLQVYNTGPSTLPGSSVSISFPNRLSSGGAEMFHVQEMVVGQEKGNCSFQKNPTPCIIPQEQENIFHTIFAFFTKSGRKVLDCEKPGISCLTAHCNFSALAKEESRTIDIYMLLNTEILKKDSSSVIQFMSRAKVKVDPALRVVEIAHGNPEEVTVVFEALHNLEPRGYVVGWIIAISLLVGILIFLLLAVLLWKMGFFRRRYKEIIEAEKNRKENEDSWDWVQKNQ

[11] = molecular target: Integrin alpha-5 (Homo sapiens) (UniProt P08648); test: Binding affinity to integrin alpha5 in human K562 cells at 1 uM for 30 mins by flow cytometry
Chain of Integrin alpha-5 (Homo sapiens) (P08648 42-894 limits assumed): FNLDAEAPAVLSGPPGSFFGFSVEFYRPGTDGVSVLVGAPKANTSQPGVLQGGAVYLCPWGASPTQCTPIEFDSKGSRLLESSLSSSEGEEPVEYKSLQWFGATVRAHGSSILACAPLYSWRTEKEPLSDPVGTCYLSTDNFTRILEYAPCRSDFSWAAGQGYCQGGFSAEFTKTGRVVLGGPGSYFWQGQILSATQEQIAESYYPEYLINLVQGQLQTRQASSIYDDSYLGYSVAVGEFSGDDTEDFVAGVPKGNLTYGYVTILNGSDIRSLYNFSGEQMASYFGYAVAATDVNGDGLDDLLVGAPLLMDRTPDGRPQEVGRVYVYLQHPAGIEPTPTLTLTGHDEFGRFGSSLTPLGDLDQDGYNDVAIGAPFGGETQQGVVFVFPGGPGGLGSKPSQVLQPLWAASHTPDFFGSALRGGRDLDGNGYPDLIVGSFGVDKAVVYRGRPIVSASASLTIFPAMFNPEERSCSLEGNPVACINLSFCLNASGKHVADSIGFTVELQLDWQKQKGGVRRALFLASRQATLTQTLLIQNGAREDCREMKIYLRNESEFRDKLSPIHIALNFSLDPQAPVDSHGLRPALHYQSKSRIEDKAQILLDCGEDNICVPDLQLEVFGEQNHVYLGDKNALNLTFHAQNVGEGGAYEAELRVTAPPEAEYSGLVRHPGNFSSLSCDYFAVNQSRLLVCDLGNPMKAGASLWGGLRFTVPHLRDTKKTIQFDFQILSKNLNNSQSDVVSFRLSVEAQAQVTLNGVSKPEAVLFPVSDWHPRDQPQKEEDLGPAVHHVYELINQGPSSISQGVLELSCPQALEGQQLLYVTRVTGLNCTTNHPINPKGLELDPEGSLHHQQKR
Chain of Integrin alpha-5 (Homo sapiens) (P08648 895-1049 limits assumed): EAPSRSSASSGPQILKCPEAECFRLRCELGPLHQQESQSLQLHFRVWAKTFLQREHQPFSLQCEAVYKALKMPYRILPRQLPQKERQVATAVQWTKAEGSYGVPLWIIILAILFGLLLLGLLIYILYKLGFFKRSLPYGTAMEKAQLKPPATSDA

[12] = molecular target: Integrin alpha-2 (Homo sapiens) (UniProt P17301); test: Binding affinity to integrin alpha2 expressed in human K562 cells at 1 uM for 30 mins by flow cytometry
Chain of Integrin alpha-2 (Homo sapiens) (P17301 whole entry): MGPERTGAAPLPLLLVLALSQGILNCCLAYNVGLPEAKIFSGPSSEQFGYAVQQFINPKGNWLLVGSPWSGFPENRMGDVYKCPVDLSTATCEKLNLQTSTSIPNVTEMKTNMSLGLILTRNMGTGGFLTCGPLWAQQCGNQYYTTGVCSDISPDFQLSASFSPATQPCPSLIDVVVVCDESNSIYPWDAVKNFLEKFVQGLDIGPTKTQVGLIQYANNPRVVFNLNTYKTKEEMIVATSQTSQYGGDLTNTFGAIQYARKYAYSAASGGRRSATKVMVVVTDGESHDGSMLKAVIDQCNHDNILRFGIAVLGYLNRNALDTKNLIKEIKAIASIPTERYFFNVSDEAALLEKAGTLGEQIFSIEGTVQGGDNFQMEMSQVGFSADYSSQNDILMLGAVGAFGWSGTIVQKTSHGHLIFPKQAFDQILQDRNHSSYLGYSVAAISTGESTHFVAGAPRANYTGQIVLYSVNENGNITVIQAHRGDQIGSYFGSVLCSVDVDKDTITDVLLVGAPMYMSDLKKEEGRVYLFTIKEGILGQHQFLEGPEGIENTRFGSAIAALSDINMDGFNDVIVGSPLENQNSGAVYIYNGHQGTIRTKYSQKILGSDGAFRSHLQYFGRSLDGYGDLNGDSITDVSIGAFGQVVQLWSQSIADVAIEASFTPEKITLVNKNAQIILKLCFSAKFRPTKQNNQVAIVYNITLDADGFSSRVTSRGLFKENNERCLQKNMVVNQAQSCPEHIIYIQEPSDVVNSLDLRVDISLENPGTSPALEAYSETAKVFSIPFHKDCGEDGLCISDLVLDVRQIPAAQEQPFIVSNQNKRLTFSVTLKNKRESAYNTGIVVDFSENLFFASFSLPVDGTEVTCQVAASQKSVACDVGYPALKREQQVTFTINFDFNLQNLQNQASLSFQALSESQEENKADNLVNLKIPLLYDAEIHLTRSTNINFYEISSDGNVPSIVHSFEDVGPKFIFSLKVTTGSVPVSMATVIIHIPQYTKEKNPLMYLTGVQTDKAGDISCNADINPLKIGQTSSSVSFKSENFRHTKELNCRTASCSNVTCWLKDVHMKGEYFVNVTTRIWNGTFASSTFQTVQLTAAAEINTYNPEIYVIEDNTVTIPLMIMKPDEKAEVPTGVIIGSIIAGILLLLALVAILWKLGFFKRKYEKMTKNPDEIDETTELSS

[13] = molecular target: T2, Integrin alpha-6 (Homo sapiens) (UniProt P23229); test: Binding affinity to integrin alpha6 expressed in human K562 cells at 1 uM for 30 mins by flow cytometry
T2 sequence (whole entry): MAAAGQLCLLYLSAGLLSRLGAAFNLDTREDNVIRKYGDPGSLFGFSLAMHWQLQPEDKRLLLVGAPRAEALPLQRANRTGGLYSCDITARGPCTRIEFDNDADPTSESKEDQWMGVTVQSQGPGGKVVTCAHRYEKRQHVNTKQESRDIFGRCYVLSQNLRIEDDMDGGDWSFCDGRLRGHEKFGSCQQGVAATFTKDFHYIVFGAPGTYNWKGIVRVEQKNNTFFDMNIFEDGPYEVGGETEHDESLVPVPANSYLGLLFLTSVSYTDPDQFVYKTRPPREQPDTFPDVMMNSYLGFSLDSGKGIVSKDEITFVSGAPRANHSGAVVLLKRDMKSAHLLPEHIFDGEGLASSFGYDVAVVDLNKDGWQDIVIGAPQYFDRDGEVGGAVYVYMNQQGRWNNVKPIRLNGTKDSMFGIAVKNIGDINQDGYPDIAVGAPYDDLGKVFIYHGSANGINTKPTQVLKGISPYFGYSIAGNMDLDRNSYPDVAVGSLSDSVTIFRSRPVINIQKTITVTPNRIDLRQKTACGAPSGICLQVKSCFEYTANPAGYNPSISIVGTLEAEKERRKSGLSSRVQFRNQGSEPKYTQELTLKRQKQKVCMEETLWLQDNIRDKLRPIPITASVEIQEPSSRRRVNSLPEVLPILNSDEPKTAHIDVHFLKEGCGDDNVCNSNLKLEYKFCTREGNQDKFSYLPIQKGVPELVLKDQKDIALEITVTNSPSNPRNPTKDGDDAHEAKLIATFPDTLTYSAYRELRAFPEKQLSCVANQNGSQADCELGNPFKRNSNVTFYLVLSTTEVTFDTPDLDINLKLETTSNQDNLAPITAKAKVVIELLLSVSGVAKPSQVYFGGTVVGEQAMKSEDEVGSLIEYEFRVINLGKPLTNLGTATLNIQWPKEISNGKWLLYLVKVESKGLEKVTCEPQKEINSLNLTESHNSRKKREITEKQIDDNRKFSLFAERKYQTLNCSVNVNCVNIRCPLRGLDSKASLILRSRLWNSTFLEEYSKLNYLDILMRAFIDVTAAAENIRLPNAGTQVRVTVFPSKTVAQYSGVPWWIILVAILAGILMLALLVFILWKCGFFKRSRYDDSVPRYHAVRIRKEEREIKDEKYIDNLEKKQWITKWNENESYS

Measured: Activity

Chain of Integrin alpha-1 (Homo sapiens) (P56199 whole entry): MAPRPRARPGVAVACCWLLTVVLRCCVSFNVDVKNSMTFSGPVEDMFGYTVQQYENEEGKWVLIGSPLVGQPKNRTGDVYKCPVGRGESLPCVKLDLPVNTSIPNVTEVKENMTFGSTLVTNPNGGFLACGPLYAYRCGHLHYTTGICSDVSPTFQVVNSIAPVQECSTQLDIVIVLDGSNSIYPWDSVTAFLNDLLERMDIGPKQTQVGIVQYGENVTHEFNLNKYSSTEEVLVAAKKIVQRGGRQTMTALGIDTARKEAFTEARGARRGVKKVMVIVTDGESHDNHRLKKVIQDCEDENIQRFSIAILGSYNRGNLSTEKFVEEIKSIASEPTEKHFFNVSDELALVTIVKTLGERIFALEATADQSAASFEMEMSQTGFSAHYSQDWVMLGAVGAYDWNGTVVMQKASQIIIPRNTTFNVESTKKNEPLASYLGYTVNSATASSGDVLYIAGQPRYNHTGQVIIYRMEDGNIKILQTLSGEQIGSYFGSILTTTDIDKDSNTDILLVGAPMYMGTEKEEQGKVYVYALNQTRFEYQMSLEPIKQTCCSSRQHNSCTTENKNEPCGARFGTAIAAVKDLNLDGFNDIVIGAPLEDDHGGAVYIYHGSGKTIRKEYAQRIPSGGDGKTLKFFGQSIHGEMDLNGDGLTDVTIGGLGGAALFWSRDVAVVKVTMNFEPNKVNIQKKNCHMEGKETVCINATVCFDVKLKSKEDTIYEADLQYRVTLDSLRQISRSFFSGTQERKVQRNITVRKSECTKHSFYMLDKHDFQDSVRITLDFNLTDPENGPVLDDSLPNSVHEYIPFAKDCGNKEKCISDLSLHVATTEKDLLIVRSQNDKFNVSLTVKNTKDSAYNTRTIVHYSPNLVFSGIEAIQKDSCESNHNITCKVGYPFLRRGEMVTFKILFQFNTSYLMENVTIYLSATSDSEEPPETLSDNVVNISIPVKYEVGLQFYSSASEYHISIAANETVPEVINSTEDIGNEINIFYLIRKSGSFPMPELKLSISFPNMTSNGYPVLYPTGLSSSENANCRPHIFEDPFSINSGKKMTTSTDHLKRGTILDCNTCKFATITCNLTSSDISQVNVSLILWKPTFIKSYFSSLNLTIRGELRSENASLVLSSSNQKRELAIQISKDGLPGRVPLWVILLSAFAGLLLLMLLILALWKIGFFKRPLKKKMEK

CC(C)C[C@@H]1NC(=O)CNC(=O)[C@@H](CC(=O)O)NC(=O)[C@@H](N)CSSC[C@@H](C(N)=O)NC(=O)[C@H](CC(N)=O)NC(=O)[C@@H]2C[C@@H](O)CN2C(=O)CNC1=O
inactive: all assays above
